Test results as given in patent publication US11427548B2 (Arvinas Operations, Inc., priority 2015, dated 2022).

Target: T1, Androgen Receptor (Homo sapiens, UniProt P10275+P40337, T878A)
T1 construct: Compounds have been evaluated in this assay in LNCaP and/or VCaP cells utilizing similar protocols; endogenous in cells; host or cells: LNCaP cells
Assay: Androgen Receptor ELISA assay (PathScan AR ELISA) in LNCaP cells: AR degradation, Dmax and DC50
Format: cell-based
Conditions: for DC50: concentration that caused 50% Androgen Receptor degradation

[1] = highest percentage of Androgen Receptor degradation observed
[2] = highest percentage of Androgen Receptor degradation

T1 sequence (P10275 whole entry T878A): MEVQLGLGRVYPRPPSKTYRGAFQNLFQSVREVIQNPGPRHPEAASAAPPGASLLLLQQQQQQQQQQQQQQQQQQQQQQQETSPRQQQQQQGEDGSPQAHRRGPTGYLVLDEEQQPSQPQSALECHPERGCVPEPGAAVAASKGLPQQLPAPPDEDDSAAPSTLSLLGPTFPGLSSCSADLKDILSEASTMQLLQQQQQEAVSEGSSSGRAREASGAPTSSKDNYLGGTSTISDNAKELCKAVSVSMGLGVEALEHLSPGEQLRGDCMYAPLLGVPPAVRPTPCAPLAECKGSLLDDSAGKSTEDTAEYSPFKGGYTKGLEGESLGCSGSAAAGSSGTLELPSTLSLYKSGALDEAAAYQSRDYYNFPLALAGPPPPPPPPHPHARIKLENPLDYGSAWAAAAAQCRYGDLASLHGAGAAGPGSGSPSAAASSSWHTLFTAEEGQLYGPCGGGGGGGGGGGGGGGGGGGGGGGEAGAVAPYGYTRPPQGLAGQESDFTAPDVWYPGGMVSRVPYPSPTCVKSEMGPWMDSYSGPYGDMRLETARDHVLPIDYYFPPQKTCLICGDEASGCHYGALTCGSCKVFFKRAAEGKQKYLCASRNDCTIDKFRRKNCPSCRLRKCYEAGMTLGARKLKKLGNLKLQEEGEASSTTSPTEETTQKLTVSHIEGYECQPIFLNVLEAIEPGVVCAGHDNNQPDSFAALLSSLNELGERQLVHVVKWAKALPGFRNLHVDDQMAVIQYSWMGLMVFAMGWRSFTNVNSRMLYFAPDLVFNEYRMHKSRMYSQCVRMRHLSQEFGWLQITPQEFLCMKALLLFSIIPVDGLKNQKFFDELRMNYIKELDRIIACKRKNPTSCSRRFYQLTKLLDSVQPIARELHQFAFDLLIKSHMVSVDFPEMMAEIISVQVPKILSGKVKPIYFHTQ
T1 sequence (P40337 whole entry): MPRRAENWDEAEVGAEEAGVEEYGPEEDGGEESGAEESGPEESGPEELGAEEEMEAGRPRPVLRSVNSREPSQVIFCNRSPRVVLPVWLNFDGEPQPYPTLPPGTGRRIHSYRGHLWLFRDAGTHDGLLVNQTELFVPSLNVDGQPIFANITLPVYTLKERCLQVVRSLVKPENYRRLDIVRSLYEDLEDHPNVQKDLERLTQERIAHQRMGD
T1 sequence (Q15369 whole entry partner): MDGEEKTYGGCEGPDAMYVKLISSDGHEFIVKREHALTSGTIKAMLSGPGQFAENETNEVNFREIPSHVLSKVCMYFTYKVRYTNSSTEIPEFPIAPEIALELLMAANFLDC
T1 sequence (Q15370 whole entry partner): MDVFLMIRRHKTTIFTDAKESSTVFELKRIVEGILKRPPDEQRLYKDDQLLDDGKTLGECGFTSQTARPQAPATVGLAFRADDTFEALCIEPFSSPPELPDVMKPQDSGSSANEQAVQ

**Q.** Which results are given for Cc1ncsc1-c1ccc(CNC(=O)[C@@H]2C[C@@H](O)CN2C(=O)[C@H](C(C)C)N2Cc3ccccc3C2=O)c(OCCOCCOCCOc2ccc(N3C(=S)N(c4ccc(C#N)c(C(F)(F)F)c4)C(=O)C3(C)C)cc2)c1 [Example 82, (2S,4R)—N-(2-(2-(2-(2-(4-(3-(4-cyano-3-(trifluoromethyl)phenyl)-5,5-dimethyl-4-oxo-2-thioxoimidazolidin-1-yl)phenoxy)ethoxy)ethoxy)ethoxy)-4-(4-methylthiazol-5-yl)benzyl)-4-hydroxy-1-((S)-3-methyl-2-(1-oxoisoindolin-2-yl)butanoyl)pyrrolidine-2-carboxamide]?
**A.** DC50: 51 to 500 nM; Dmax [1]: 51 to 70%

**Q.** Which DC50 does the source give for Cc1ncsc1-c1ccc(CNC(=O)[C@@H]2C[C@@H](O)CN2C(=O)[C@H](C(C)C)N2Cc3ccc(F)cc3C2=O)c(OCCOCCOCCOc2ccc(N3C(=S)N(c4ccc(C#N)c(C(F)(F)F)c4)C(=O)C3(C)C)cc2)c1 [Example 83, (2S,4R)-N-{[2-(2-{2-[2-(4-{3-[4-cyano-3-(trifluoromethyl)phenyl]-5,5-dimethyl-4-oxo-2-sulfanylideneimidazolidin-1-yl}phenoxy)ethoxy]ethoxy}ethoxy)-4-(4-methyl-1,3-thiazol-5-yl)phenyl]methyl}-1-[(2S)-2-(6-fluoro-1-oxo-2,3-dihydro-1H-isoindol-2-yl)-3-methylbutanoyl]-4-hydroxypyrrolidine-2-carboxamide] here?
**A.** 51 to 500 nM

**Q.** And the Dmax [1]?
**A.** 51 to 70%

**Q.** Which results are given for Cc1ncsc1-c1ccc(CNC(=O)[C@@H]2C[C@@H](O)CN2C(=O)[C@H](C(C)C)N2Cc3cccc(C#N)c3C2=O)c(OCCOCCOCCOc2ccc(N3C(=S)N(c4ccc(C#N)c(C(F)(F)F)c4)C(=O)C3(C)C)cc2)c1 [Example 84]?
**A.** DC50: 51 to 500 nM; Dmax [1]: 51 to 70%

**Q.** For Cc1ncsc1-c1ccc(CNC(=O)[C@@H]2C[C@@H](O)CN2C(=O)[C@H](C(C)C)N2Cc3ccccc3C2=O)c(OCCO[C@H](C)[C@@H](C)OCCOc2ccc(N3C(=S)N(c4ccc(C#N)c(C(F)(F)F)c4)C(=O)C3(C)C)cc2)c1 [Example 85, (2S,4R)-N-{[2-(2-{[(2R,3R)-3-[2-(4-{3-[4-cyano-3-(trifluoromethyl)phenyl]-5,5-dimethyl-4-oxo-2-sulfanylideneimidazolidin-1-yl}phenoxy)ethoxy]butan-2-yl]oxy}ethoxy)-4-(4-methyl-1,3-thiazol-5-yl)phenyl]methyl}-4-hydroxy-1-[(2S)-3-methyl-2-(1-oxo-2,3-dihydro-1H-isoindol-2-yl)butanoyl]pyrrolidine-2-carboxamide], which DC50 is on record?
**A.** > 501 nM

**Q.** And the Dmax [1]?
**A.** 51 to 70%

**Q.** What does the source list for Cc1ncsc1-c1ccc(CNC(=O)[C@@H]2C[C@@H](O)CN2C(=O)[C@H](C(C)C)N2Cc3ccccc3C2=O)c(OCCCOCCOCCOc2ccc(N3C(=S)N(c4ccc(C#N)c(C(F)(F)F)c4)C(=O)C3(C)C)cc2)c1 [Example 205]?
**A.** DC50: > 501 nM; Dmax [2]: < 25%

**Q.** What does the source list for Cc1ncsc1-c1ccc(CNC(=O)[C@@H]2C[C@@H](O)CN2C(=O)[C@H](C(C)C)N2Cc3ccccc3C2=O)c(OCCOCCOc2ccc(N3C(=S)N(c4ccc(C#N)c(C(F)(F)F)c4)C(=O)C3(C)C)cc2)c1 [Example 206]?
**A.** DC50: 51 to 500 nM; Dmax [2]: 51 to 70%

**Q.** Which DC50 does the source give for Cc1ncsc1-c1ccc(CNC(=O)[C@@H]2C[C@@H](O)CN2C(=O)[C@H](C(C)C)N2Cc3ccccc3C2=O)c(OCCCCOCCCCOCCCCOc2ccc(N3C(=S)N(c4ccc(C#N)c(C(F)(F)F)c4)C(=O)C3(C)C)cc2)c1 [Example 207] here?
**A.** 51 to 500 nM

**Q.** And the Dmax [2]?
**A.** 26 to 50%

**Q.** For Cc1ncsc1-c1ccc(CNC(=O)[C@@H]2C[C@@H](O)CN2C(=O)[C@H](C(C)C)N2Cc3ccccc3C2=O)c(OCCOCCOCCOCCOc2ccc(N3C(=S)N(c4ccc(C#N)c(C(F)(F)F)c4)C(=O)C3(C)C)cc2)c1 [Example 210], which DC50 is on record?
**A.** > 501 nM

**Q.** And the Dmax [2]?
**A.** 26 to 50%

**Q.** With Cc1ncsc1-c1ccc(CNC(=O)[C@@H]2C[C@@H](O)CN2C(=O)[C@H](C(C)C)N2Cc3ccccc3C2=O)c(OCCOCCOCCOCCOCCOc2ccc(N3C(=S)N(c4ccc(C#N)c(C(F)(F)F)c4)C(=O)C3(C)C)cc2)c1 [Example 211] as the molecule, how does the DC50 read?
**A.** 51 to 500 nM

**Q.** And the Dmax [2]?
**A.** 26 to 50%

**Q.** Which DC50 does the source give for Cc1ncsc1-c1ccc(CNC(=O)[C@@H]2C[C@@H](O)CN2C(=O)[C@@H](NC(=O)COCCOCCOCCOCCOCCOCCOc2ccc(N3C(=S)N(c4ccc(C#N)c(C(F)(F)F)c4)C(=O)C3(C)C)cc2)C(C)(C)C)cc1 [Example 212] here?
**A.** > 501 nM

**Q.** And the Dmax [2]?
**A.** > 71%

**Q.** Which DC50 does the source give for Cc1ncsc1-c1ccc(CNC(=O)[C@@H]2C[C@@H](O)CN2C(=O)[C@H](C(C)C)N2Cc3ccccc3C2=O)c(OCCOCCOCCCOCCOCCOc2ccc(N3C(=S)N(c4ccc(C#N)c(C(F)(F)F)c4)C(=O)C3(C)C)cc2)c1 [Example 214] here?
**A.** 51 to 500 nM

**Q.** And the Dmax [2]?
**A.** 51 to 70%

**Q.** Which DC50 does the source give for Cc1ncsc1-c1ccc(CNC(=O)[C@@H]2C[C@@H](O)CN2C(=O)[C@H](C(C)C)N2Cc3ccccc3C2=O)c(OCCOCCOCCCCOCCOCCOc2ccc(N3C(=S)N(c4ccc(C#N)c(C(F)(F)F)c4)C(=O)C3(C)C)cc2)c1 [Example 215] here?
**A.** 51 to 500 nM

**Q.** And the Dmax [2]?
**A.** 26 to 50%

**Q.** How did the DC50 turn out when Cc1ncsc1-c1ccc(CNC(=O)[C@@H]2C[C@@H](O)CN2C(=O)[C@@H](NC(=O)COCCOCCOCCCOCCOCCOc2ccc(N3C(=S)N(c4ccc(C#N)c(C(F)(F)F)c4)C(=O)C3(C)C)cc2)C(C)(C)C)cc1 [Example 216] was run?
**A.** 51 to 500 nM

**Q.** And the Dmax [2]?
**A.** 51 to 70%

**Q.** For Cc1ncsc1-c1ccc(CNC(=O)[C@@H]2C[C@@H](O)CN2C(=O)[C@@H](NC(=O)COCCOCCOCCCCOCCOCCOc2ccc(N3C(=S)N(c4ccc(C#N)c(C(F)(F)F)c4)C(=O)C3(C)C)cc2)C(C)(C)C)cc1 [Example 217], which DC50 is on record?
**A.** < 50 nM

**Q.** What about the Dmax [2] of the same molecule?
**A.** 51 to 70%

**Q.** For Cc1ncsc1-c1ccc(CNC(=O)[C@@H]2C[C@@H](O)CN2C(=O)[C@H](C(C)C)N2Cc3ccccc3C2=O)c(OCCOCCOCCCCCOCCOCCOc2ccc(N3C(=S)N(c4ccc(C#N)c(C(F)(F)F)c4)C(=O)C3(C)C)cc2)c1 [Example 218], which Dmax [2] is on record?
**A.** 26 to 50%

**Q.** Cc1ncsc1-c1ccc(CNC(=O)[C@@H]2C[C@@H](O)CN2C(=O)[C@H](C(C)C)N2Cc3ccccc3C2=O)c(OCCOCCOCCCCOCCCCOCCOCCOc2ccc(N3C(=S)N(c4ccc(C#N)c(C(F)(F)F)c4)C(=O)C3(C)C)cc2)c1 [Example 219] was tested. Which Dmax [2] did it give?
**A.** > 71%

**Q.** Cc1ncsc1-c1ccc(CNC(=O)[C@@H]2C[C@@H](O)CN2C(=O)[C@H](C(C)C)N2Cc3ccccc3C2=O)c(OCCOCCOCCCCCOCCCCCOCCOCCOc2ccc(N3C(=S)N(c4ccc(C#N)c(C(F)(F)F)c4)C(=O)C3(C)C)cc2)c1 [Example 220] was tested. Which Dmax [2] did it give?
**A.** 51 to 70%

**Q.** Cc1ncsc1-c1ccc(CNC(=O)[C@@H]2C[C@@H](O)CN2C(=O)[C@@H](NC(=O)COCCOCCOCCCCCOCCOCCOc2ccc(N3C(=S)N(c4ccc(C#N)c(C(F)(F)F)c4)C(=O)C3(C)C)cc2)C(C)(C)C)cc1 [Example 222] was tested. Which Dmax [2] did it give?
**A.** 26 to 50%

**Q.** Which Dmax [2] does the source give for Cc1ncsc1-c1ccc(CNC(=O)[C@@H]2C[C@@H](O)CN2C(=O)[C@@H](NC(=O)COCCOCCCCOCCCCOCCOCCOc2ccc(N3C(=S)N(c4ccc(C#N)c(C(F)(F)F)c4)C(=O)C3(C)C)cc2)C(C)(C)C)cc1 [Example 223] here?
**A.** 26 to 50%

**Q.** Which Dmax [2] does the source give for Cc1ncsc1-c1ccc(CNC(=O)[C@@H]2C[C@@H](O)CN2C(=O)[C@@H](NC(=O)COCCOCCCCCOCCCCCOCCOCCOc2ccc(N3C(=S)N(c4ccc(C#N)c(C(F)(F)F)c4)C(=O)C3(C)C)cc2)C(C)(C)C)cc1 [Example 224] here?
**A.** 26 to 50%

**Q.** Cc1ncsc1-c1ccc(CNC(=O)[C@@H]2C[C@@H](O)CN2C(=O)[C@@H](NC(=O)COCCOCCOCCCCCOc2ccc(N3C(=S)N(c4ccc(C#N)c(C(F)(F)F)c4)C(=O)C3(C)C)cc2)C(C)(C)C)cc1 [Example 225] was tested. Which DC50 did it give?
**A.** < 50 nM

**Q.** What about the Dmax [2] of the same molecule?
**A.** 51 to 70%

**Q.** How did the DC50 turn out when Cc1ncsc1-c1ccc(CNC(=O)[C@@H]2C[C@@H](O)CN2C(=O)[C@@H](NC(=O)CCCCCOCCCCOCCCCOc2ccc(N3C(=S)N(c4ccc(C#N)c(C(F)(F)F)c4)C(=O)C3(C)C)cc2)C(C)(C)C)cc1 [Example 227] was run?
**A.** < 50 nM

**Q.** What about the Dmax [2] of the same molecule?
**A.** 26 to 50%

**Q.** For Cc1ncsc1-c1ccc(CNC(=O)[C@@H]2C[C@@H](O)CN2C(=O)[C@@H](NC(=O)CCOCCOCCCCCOc2ccc(N3C(=S)N(c4ccc(C#N)c(C(F)(F)F)c4)C(=O)C3(C)C)cc2)C(C)(C)C)cc1 [Example 228], which DC50 is on record?
**A.** 51 to 500 nM

**Q.** What about the Dmax [2] of the same molecule?
**A.** 51 to 70%

**Q.** How did the DC50 turn out when Cc1ncsc1-c1ccc(CNC(=O)[C@@H]2C[C@H](O)CN2C(=O)[C@H](C(C)C)N2Cc3ccccc3C2=O)c(OCCOCCOCCOc2ccc(N3C(=S)N(c4ccc(C#N)c(C(F)(F)F)c4)C(=O)C3(C)C)cc2)c1 [Example 229] was run?
**A.** 51 to 500 nM

**Q.** And the Dmax [2]?
**A.** 51 to 70%

**Q.** What does the source list for Cc1ncsc1-c1ccc(CNC(=O)[C@@H]2C[C@@H](O)CN2C(=O)[C@@H](NC(=O)CCNC(=O)CCCc2ccc(N3C(=S)N(c4ccc(C#N)c(C(F)(F)F)c4)C(=O)C3(C)C)cc2)C(C)(C)C)cc1 [Example 231]?
**A.** DC50: > 501 nM; Dmax [2]: 51 to 70%

**Q.** Which DC50 does the source give for Cc1ncsc1-c1ccc(CNC(=O)[C@@H]2C[C@@H](O)CN2C(=O)[C@@H](NC(=O)CCOCCNC(=O)CCCc2ccc(N3C(=S)N(c4ccc(C#N)c(C(F)(F)F)c4)C(=O)C3(C)C)cc2)C(C)(C)C)cc1 [Example 232] here?
**A.** > 501 nM

**Q.** What about the Dmax [2] of the same molecule?
**A.** 26 to 50%

**Q.** How did the DC50 turn out when Cc1ncsc1-c1ccc(CNC(=O)[C@@H]2C[C@@H](O)CN2C(=O)[C@@H](NC(=O)CCOCCOc2ccc(N3C(=S)N(c4ccc(C#N)c(C(F)(F)F)c4)C(=O)C3(C)C)cc2)C(C)(C)C)cc1 [Example 233] was run?
**A.** > 501 nM

**Q.** What about the Dmax [2] of the same molecule?
**A.** 51 to 70%

**Q.** Which results are given for Cc1ncsc1-c1ccc(CNC(=O)C2C[C@@H](OC(C)(C)C)CN2C(=O)[C@H](C(C)C)N2Cc3ccccc3C2=O)c(OCCOCCOCCOc2ccc(N3C(=O)N(c4ccc(C#N)c(C(F)(F)F)c4)C(=O)C3(C)C)cc2)c1 (some centres unmarked) [Example 234]?
**A.** DC50: 51 to 500 nM; Dmax [2]: 26 to 50%

**Q.** How did the DC50 turn out when Cc1ncsc1-c1ccc(CNC(=O)C2C[C@@H](O)CN2C(=O)[C@H](C(C)C)N2Cc3ccccc3C2=O)c(OCCOCCOCCOc2ccc(N3C(=O)N(c4ccc(C#N)c(C(F)(F)F)c4)C(=O)C3(C)C)cc2)c1 (some centres unmarked) [Example 235] was run?
**A.** 51 to 500 nM

**Q.** And the Dmax [2]?
**A.** 51 to 70%

**Q.** With Cc1ncsc1-c1ccc(CNC(=O)[C@@H]2C[C@@H](O)CN2C(=O)[C@@H](NC(=O)COCCOc2ccc(N3C(=S)N(c4ccc(C#N)c(C(F)(F)F)c4)C(=O)C3(C)C)cc2)C(C)(C)C)cc1 [Example 236] as the molecule, how does the DC50 read?
**A.** > 501 nM

**Q.** And the Dmax [2]?
**A.** 26 to 50%

**Q.** With Cc1ncsc1-c1ccc(CNC(=O)[C@@H]2C[C@@H](O)CN2C(=O)[C@@H](NC(=O)CCCOc2ccc(N3C(=S)N(c4ccc(C#N)c(C(F)(F)F)c4)C(=O)C3(C)C)cc2)C(C)(C)C)cc1 [Example 237] as the molecule, how does the DC50 read?
**A.** > 501 nM

**Q.** What about the Dmax [2] of the same molecule?
**A.** 26 to 50%
